Laboratory results from patent US20200329698A1, “COMPOSITIONS FOR ORGAN GRAFT PRESERVATION AND METHODS OF USE” (Nobilis Therapeutics, Inc., priority 2019, published 2020).

Experiments:
[1] = test system: JAK/STAT signaling pathway; conditions: cited from earlier work
[2] = test system: ex vivo renal grafts from brain death or cardiac arrest donors; test: Rat hypothermic machine perfusion model; conditions: exposure of ex vivo grafts prior to engraftment
[3] = test system: rat renal grafts from DBD donation or DCD donation; conditions: Dex 0.1 nM in UW at 4° C., cold ischemia 24 hr, vs vehicle
Method: For in vivo fluorescence or DAB staining, 25-μm frozen lung sections were incubated with rabbit anti-Rip1 (1:200, SANTA CRUZ BIOTECHNOLOGY®), rabbit anti-Rip3 (1:200, SANTA CRUZ BIOTECHNOLOGY®), mouse anti-HMGB-1 (1:200, Abcam), Goat anti-TLR-4 (1:200, SANTA CRUZ BIOTECHNOLOGY®), rabbit anti-Nrf-2 (1:200, SANTA CRUZ BIOTECHNOLOGY®), mouse anti-SOD-1 (1:200, Abcam), mouse anti-NQO-1 (1:200 Abcam), rabbit anti-3-nitrotyrosine (1:200, Abcam) and rabbit anti-4-hydroxynonenal (1:200, Abcam) at 4° C. overnight. After washing with PBST, the slides were incubated with fluorochrome-conjugated secondary antibodies (MILLIPORE™, UK). For double-labelled immunofluorescence, lung samples were incubated with the first primary antibody overnight, followed by the first secondary antibody, and then the second primary antibody and the second secondary antibody. The slides were counterstained with nuclear dye DAPI and mounted with […]® Mounting Medium (Vector lab, USA). Sections were examined using an OLYMPUS™ (Watford, UK) BX4 microscope under constant exposure level. Immunofluorescence was quantified using ImageJ (National Institutes of Health, Maryland, USA) and the background was subtracted. Ten representative regions per section (in vivo) or field (in vitro) were randomly selected by an assessor blinded to the treatment groups. Values were then calculated as percentages of the mean value for naïve controls and expressed as percentage fluorescence intensity.
Lung alveolar cell death was detected by the in situ TUNEL assay (MILLIPORE™) according to the manufacturer's instructions. TUNEL nuclei were visualized by green FITC fluorescence.
A rat renal graft machine perfusion model was developed, (see FIG. 1B) to simulate the renal graft preservation process. A series of experiments were conducted using the Fischer-to-Lewis allogeneic renal transplant model. Grafts from donors after brain death (DBD) or cardiac arrest (DCD) were used. The preserving solution was saturated with dexmedetomidine at 0.1 nM[32]. The grafts were extracted and then machine-perfused with UW solution at 4° C.[18] with a flow rate of 1.5-2 ml/min [39] for 4 hours and then kept in the preserving solution until 24 hours. Grafts were then transplanted into Lewis recipient immediately following extraction (cold-ischemia 0 hr), or stored in preservative solution for 24 hr (cold-ischemia 24 hr), The orthotopic renal transplantation into Lewis recipients was conducted and their contralateral kidneys were removed at the end of surgery. The recipient received cyclosporine A (5 mg/kg/day intramuscular injection per day) for 10 days to prevent acute immune rejection.

For `Cc1cccc([C@H](C)c2cnc[nH]2)c1C` [Dexmedetomidine], which “level of p-JAK2 and its downstream effectors p-STAT1 and STATS” value ([1]; mice, warm ischemia-reperfusion injury) is on record?
The value was “significant reduced level”.

And the long-term renal function ([1]; mouse, in vivo)?
Its long-term renal function is “long-term functional renoprotection”.

What about the survival ([1]; mouse, in vivo) of the same molecule?
The survival was “increased survival”.

What about the “tubular architecture and function following renal ischemia” value ([1]; pre- or post-treatment) of the same molecule?
The value was “improved tubular architecture and function”.

What about the “organ graft injury, histologically and functionally” value [2] of the same molecule?
The value was “prevent organ graft injury”.

And the “Heme oxygenase 1 (HO-1) expression, immunofluorescence” value [3]?
Its value is “significantly increased”.

And the “Nrf2 expression, immunofluorescence” value [3]?
The value was “significantly increased”.

And the “necroptosis (expression of MLKL)” value [3]?
Its value is “suppressed necroptosis”.

And the “renal graft architecture / morphology (H&E staining, injury scoring)” value [3]?
Its value is “preserved the renal graft architecture”.

What about the “tissue injury in the renal cortex (TUNEL cell death staining)” value [3] of the same molecule?
The value was “reduced tissue injury in the renal cortex”.
